One data set concerns Sclerotium rolfsii. Put plainly: Hypha growth inhibition, toxicity determination for Sclerotium rolfsii. The note with it: PDA medium, 25° C. It counts as cell-based. On the procedure: (§1) Fungicidal properties of Thifluzamide and Ipconazole were analyzed in detail.
(§2) Test targets were Rhizoctonia solani and Sclerotium rolfsii, but not limited herein. […] Hypha blocks having a diameter of 5 mm were made on the edges of pre-culture colonies by a sterilized puncher and respectively transferred onto different medium plates for culturing at 25° C. A hypha growth measurement method was adopted in the test to prepare drug-containing media according to different treatments; the hypha blocks having the diameter of 5 mm were made on the edges of pre-culture colonies by the sterilized puncher and respectively transferred onto medium plates having different drug contents; a colony diameter was measured by a crossing method; the colony diameter (mm) was measured; and a growth inhibition ratio was calculated by the following formulas: […]
(§3) The hypha growth inhibition ratio was converted into an inhibition probability value (y); the agent concentration was converted into a concentration logarithm (x); a toxic regression line was drawn by taking the concentration logarithm as a horizontal coordinate and taking the probability value as a vertical coordinate; a toxic regression equation of the single agents such as the Thfiluzamide and Ipconazole and a mixture thereof for pathogenic bacteria was solved; and the EC50 value and a related ratio r were calculated. […]

Another data set deals with Rhizoctonia solani. Briefly: Hypha growth inhibition, toxicity determination for Rhizoctonia solani. To be noted: PDA medium, 25° C. Format: cell-based. On the procedure:
as §1, §2, §3

For data set [1] the following is noted: pH value of 5-9; cited from earlier work.
The next data set has as its system rabbit. The note with it: cited from earlier work.

Take `CC(C)C1CCC(Cc2ccc(Cl)cc2)C1(O)Cn1cncn1` (stereo not drawn) [Ipconazole, (1RS, 2SR, 5RS; 1RS, 2SR, 5 SR)-2-(4-chlorobenzyl)-5-isopropyl-1-(1H-1,2,4-triazole-1-ylmethyl) cyclopentanol]: the EC50 ppm in the data set with Sclerotium rolfsii was found to be 0.0327 ppm; with Rhizoctonia solani it was 0.0217 ppm.
With `Cc1nc(C(F)(F)F)c(C(=O)Nc2c(Br)cc(OC(F)(F)F)cc2Br)s1` [Thifluzamide, 2′,6′-dibromo-2-methyl-4′-trifluoromethoxy-4-trifluoromethyl-1,3-thiadiazole-5-hydroxyanilide], the EC50 ppm is recorded as 0.1258 ppm with Sclerotium rolfsii and 0.154 ppm with Rhizoctonia solani. Besides, the stability result in data set [1] is on record as “stable”. Further, in the data set on rabbit, the “acute dermal LD50” value is given as > 2000 mg/kg.

The values are drawn from US20230157292A1, “SEED COATING FORMULA FOR CONTROLLING SOYBEAN SOUTHERN BLIGHT AND SOYBEAN SHEATH BLIGHT” (Institute of Plant Protection and Agro-products Safety, …, priority 2022, published 2023).
